Laboratory results taken from ChEMBL document CHEMBL5665443, “Enzyme Inhibitor Single Concentration assay results for EUbOPEN Chemogenomics Library” (2024).

How the values were obtained:
[1] = target: N-glycosylase/DNA lyase (Homo sapiens) (UniProt O15527); settings: Hit No;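 further: OGG1 cleavage of a quenched duplex DNA oligonucleotide, coupled to APE1 for strand incision, read as fluorescence at 594 nm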
Description: Inhibition of OGG1 by quantifying inhibition of OGG1-mediated cleavage and dissociation of quenched duplex DNA oligonucleotides, measured as fluorescence at 594 nm. To generate a functional strand incision and increase turn-over this assay is coupled to APE1.

[2] = target: G/T mismatch-specific thymine DNA glycosylase (Homo sapiens) (UniProt Q13569); settings: Hit No;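 further: human TDG cleavage of quenched duplex DNA oligonucleotides coupled to APE1, strand release read as fluorescence at 594 nm, inhibition of TDG activity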
G/T mismatch-specific thymine DNA glycosylase (Homo sapiens), sequence (Q13569 whole entry, the tested form may be a part): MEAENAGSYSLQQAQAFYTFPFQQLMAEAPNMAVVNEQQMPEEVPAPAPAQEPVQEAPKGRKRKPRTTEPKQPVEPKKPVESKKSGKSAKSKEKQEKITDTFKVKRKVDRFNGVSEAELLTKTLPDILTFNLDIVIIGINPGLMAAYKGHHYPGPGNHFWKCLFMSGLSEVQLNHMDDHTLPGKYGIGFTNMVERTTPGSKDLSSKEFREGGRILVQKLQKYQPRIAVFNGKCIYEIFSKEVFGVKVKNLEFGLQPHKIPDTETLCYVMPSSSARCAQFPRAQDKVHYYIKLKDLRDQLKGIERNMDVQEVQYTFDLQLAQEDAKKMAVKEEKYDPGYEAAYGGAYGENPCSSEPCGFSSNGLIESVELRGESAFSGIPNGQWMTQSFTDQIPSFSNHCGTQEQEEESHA
Description: Inhibition of TDG by quantifying inhibition of TDG-mediated cleavage and dissociation of quenched duplex DNA oligonucleotides, measured as fluorescence at 594 nm. To generate a functional strand incision and increase turn-over this assay is coupled to APE1.

[3] = target: Methyl-CpG-binding domain protein 4 (Homo sapiens) (UniProt O95243); settings: Hit No;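 further: MBD4 activity read as fluorescence at 594 nm from cleavage and release of a quenched duplex DNA oligonucleotide, with APE1 coupled to incise the strand and raise turnover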
Methyl-CpG-binding domain protein 4 (Homo sapiens), sequence (O95243 whole entry, the tested form may be a part): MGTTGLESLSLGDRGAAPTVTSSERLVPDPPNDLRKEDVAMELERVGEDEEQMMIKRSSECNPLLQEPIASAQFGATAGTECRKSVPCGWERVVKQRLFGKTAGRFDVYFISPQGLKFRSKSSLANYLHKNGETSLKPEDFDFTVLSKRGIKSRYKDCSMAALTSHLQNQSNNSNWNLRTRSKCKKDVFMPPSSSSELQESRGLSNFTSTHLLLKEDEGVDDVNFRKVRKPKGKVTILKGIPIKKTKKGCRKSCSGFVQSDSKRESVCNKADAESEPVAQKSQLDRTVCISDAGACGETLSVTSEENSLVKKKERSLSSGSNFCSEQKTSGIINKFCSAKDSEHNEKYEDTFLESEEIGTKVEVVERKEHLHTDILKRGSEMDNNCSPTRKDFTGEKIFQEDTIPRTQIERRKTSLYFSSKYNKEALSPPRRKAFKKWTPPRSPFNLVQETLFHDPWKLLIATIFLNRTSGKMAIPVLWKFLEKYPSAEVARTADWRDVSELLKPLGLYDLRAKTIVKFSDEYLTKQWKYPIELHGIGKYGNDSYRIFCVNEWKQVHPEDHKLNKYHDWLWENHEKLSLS
Description: Inhibition of MBD4 by quantifying inhibition of MBD4-mediated cleavage and dissociation of quenched duplex DNA oligonucleotides, measured as fluorescence at 594 nm. To generate a functional strand incision and increase turn-over this assay is coupled to APE1.

[4] = target: Endonuclease 8-like 1 (Homo sapiens) (UniProt Q96FI4); settings: Hit No;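 further: fluorescence at 594 nm from quenched duplex DNA oligonucleotides released by NEIL1 cleavage and strand separation, reported as reduction of this enzyme activity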
Endonuclease 8-like 1 (Homo sapiens), sequence (Q96FI4 whole entry): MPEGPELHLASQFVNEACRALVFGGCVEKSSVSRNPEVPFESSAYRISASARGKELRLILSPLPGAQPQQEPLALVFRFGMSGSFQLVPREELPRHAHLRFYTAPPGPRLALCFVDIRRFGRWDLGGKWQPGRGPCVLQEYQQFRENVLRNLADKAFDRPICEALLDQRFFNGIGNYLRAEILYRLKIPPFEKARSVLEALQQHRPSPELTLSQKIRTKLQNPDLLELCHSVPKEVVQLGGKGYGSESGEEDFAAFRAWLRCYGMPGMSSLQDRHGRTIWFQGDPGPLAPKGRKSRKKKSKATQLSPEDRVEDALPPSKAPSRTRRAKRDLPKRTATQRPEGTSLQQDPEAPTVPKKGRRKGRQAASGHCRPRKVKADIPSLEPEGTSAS
Description: Inhibition of NEIL1 by quantifying inhibition of NEIL1-mediated cleavage and dissociation of quenched duplex DNA oligonucleotides, measured as fluorescence at 594 nm.

[5] = target: T1, Single-strand selective monofunctional uracil DNA glycosylase (Homo sapiens) (UniProt Q53HV7); settings: Hit No;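 further: enzymatic SMUG1 assay coupled with APE1, reading fluorescence at 594 nm released when a quenched double-stranded DNA oligonucleotide substrate is cleaved and separated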
T1 sequence (whole entry): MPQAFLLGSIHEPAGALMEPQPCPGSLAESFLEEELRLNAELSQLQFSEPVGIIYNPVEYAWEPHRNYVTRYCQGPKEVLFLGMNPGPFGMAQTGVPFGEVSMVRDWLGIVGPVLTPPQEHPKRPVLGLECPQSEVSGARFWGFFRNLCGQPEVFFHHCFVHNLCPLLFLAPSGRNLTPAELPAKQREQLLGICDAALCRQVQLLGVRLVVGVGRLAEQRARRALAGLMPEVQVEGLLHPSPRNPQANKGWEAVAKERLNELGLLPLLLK
Description: Inhibition of SMUG1 by quantifying inhibition of SMUG1-mediated cleavage and dissociation of quenched duplex DNA oligonucleotides, measured as fluorescence at 594 nm. To generate a functional strand incision and increase turn-over this assay is coupled to APE1.

[6] = target: T2, Endonuclease 8-like 2 (Homo sapiens) (UniProt Q969S2); settings: Hit No;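 further: fluorescence at 594 nm reports NEIL2 cutting and release of a quenched double-stranded DNA oligo substrate, reduced signal read as inhibition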
T2 sequence (whole entry): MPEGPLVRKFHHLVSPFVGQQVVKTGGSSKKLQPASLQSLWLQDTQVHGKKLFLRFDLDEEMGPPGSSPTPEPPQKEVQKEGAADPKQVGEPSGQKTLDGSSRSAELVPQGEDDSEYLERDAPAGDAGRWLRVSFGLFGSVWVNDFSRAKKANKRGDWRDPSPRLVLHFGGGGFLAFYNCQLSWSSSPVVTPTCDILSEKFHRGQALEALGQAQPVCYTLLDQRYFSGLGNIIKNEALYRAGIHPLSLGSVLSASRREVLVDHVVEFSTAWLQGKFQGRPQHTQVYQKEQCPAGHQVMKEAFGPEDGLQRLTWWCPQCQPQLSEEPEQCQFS
Description: Inhibition of NEIL2 by quantifying inhibition of NEIL2-mediated cleavage and dissociation of quenched duplex DNA oligonucleotides, measured as fluorescence at 594 nm.

[7] = target: Uracil-DNA glycosylase (Homo sapiens) (UniProt P13051); settings: Hit No;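 further: UNG excision on a quenched double-stranded DNA oligo probe, with APE1 added for strand incision and turnover, read as fluorescence at 594 nm as strands separate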
Uracil-DNA glycosylase (Homo sapiens), sequence (P13051 whole entry): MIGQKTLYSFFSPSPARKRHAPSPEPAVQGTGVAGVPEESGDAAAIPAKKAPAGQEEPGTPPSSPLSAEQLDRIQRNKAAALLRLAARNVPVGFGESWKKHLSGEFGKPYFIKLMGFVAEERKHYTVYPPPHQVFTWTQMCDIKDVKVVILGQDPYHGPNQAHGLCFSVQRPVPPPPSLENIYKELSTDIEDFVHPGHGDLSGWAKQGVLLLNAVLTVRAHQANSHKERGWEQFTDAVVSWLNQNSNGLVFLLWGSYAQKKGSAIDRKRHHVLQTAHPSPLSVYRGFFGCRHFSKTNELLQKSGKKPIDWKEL
Description: Inhibition of UNG by quantifying inhibition of UNG-mediated cleavage and dissociation of quenched duplex DNA oligonucleotides, measured as fluorescence at 594 nm. To generate a functional strand incision and increase turn-over this assay is coupled to APE1.

[8] = target: T3, Endonuclease III-like protein 1 (Homo sapiens) (UniProt P78549); settings: Compound Concentration 10.0 uM, Hit No;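 further: enzyme assay tracking NTHL1 cutting and release of a quenched double-stranded DNA oligo substrate, read as fluorescence at 594 nm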
T3 sequence (whole entry): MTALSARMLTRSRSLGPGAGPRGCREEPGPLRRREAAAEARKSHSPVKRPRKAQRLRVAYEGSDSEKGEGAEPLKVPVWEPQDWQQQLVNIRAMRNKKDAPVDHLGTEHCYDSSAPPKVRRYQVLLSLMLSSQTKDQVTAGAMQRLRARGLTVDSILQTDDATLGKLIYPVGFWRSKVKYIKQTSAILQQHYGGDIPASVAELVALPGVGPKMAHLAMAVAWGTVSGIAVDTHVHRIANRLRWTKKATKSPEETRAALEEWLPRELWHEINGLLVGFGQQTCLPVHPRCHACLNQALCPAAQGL
Description: Inhibition of NTHL1 by quantifying inhibition of NTHL1-mediated cleavage and dissociation of quenched duplex DNA oligonucleotides, measured as fluorescence at 594 nm.

N-glycosylase/DNA lyase (Homo sapiens), sequence (O15527 whole entry): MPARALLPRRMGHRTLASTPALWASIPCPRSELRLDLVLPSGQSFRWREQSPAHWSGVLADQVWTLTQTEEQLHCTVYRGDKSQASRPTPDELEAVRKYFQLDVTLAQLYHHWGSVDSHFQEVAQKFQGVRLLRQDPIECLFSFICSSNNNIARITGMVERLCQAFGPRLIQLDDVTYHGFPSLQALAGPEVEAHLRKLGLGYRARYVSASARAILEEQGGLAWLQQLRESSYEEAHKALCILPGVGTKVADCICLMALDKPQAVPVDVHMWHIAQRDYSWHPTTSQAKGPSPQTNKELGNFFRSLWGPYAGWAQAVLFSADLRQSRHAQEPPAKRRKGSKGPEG

Compound	inhibition ([1]; Compound Concentration 1.0 uM)	inhibition ([2]; Compound Concentration 1.0 uM)	inhibition ([3]; Compound Concentration 1.0 uM)	inhibition ([4]; Compound Concentration 1.0 uM)	inhibition ([5]; Compound Concentration 1.0 uM)	inhibition ([6]; Compound Concentration 1.0 uM)	inhibition ([7]; Compound Concentration 1.0 uM)	inhibition ([1]; Compound Concentration 10.0 uM)	inhibition ([2]; Compound Concentration 10.0 uM)	inhibition ([3]; Compound Concentration 10.0 uM)	inhibition ([4]; Compound Concentration 10.0 uM)	inhibition ([5]; Compound Concentration 10.0 uM)	inhibition ([6]; Compound Concentration 10.0 uM)	inhibition ([7]; Compound Concentration 10.0 uM)	inhibition [8]
COc1cccc(CNC(=O)c2nc3scc(COCc4ccc(C(=O)O)cc4)c3c(=O)[nH]2)c1	12.5%	99.5%	56%	-1.5%	18.6%	-2.53%	-0.0979%								
CC[C@H](CC(=O)O)n1c(=O)c2ncccc2n(Cc2cn(C)c3cc(C)cc(C)c23)c1=O								0.279%	46.4%	56.1%	0.164%	-8.88%	-5.34%	0.131%	
COc1ccc2cc(OCC3(C(=O)O)CN(C(=O)c4ccc(F)cc4)C3)ccc2c1	-4.88%	50.2%	76.6%	0.467%	4.5%	-2.53%	-0.296%								
CS(=O)(=O)NCC[C@H](NC(=O)c1cncc2c1cnn2-c1ccc(F)cc1)c1ccnc(S(C)(=O)=O)c1	-0.705%	50.4%	64.7%	-4.23%	6.65%	0.0213%	-0.0979%								
CCc1nn(CCCN2CCN(c3cccc(Cl)c3)CC2)c(=O)n1CCOc1ccccc1											-3.02%		-4.48%	-5.52%	7.79%
COc1ccc(S(=O)(=O)N2C(=O)[C@@](c3ccccc3OC)(N3C[C@H](O)C[C@H]3C(=O)N(C)C)c3cc(Cl)ccc32)c(OC)c1											2.68%		-8.25%	1.21%	-0.258%
Oc1c(CN2CCN(c3ccccn3)CC2)cc(Cl)c2cccnc12											-9.54%		7.5%		39.3%
Clc1ccc(-c2nc3sccn3c2/C=N/OCc2ccc(Cl)c(Cl)c2)cc1								1.07%	76.8%	15.6%	1.22%	12%	2.57%	-2.04%	
CCC[C@H]1CNCc2c1[nH]c(=O)c(C#N)c2N1CCC2(CC1)CC2								2.34%	100%	58.5%	9.71%	6.33%	-0.999%	0.94%	
CN1CCN(c2ccc(/C=C(\C#N)c3ccccc3Br)cc2)CC1								25.6%	42.1%	55.3%	-2.11%	7.83%	-0.489%	4.48%	
Cc1ccc2[nH]c(CNCCCc3ccncc3)cc(=O)c2c1								5.93%	35.6%	56.8%	-2.56%	7.47%	-5.59%	-0.701%	
CCOc1ccc(-n2c([C@@H](C)N(Cc3cccnc3)C(=O)Cc3ccc(F)c(C(F)(F)F)c3)nc3ncccc3c2=O)cc1											6.83%		-4.17%	-5.43%	5.52%
O=C(NCCN1CCOCC1)c1ccc2c(c1)C(=O)c1ccc(Nc3ccc(F)c(NC(=O)c4ccccc4)c3)cc1CC2											-5.6%		-4.66%		0.366%
CC(C)CNc1nc(N2CCN(CC3CCCOC3)CC2)ncc1C(=O)NCc1ccccc1 (stereo not given)											2.23%		-0.0955%	-1.17%	-1.08%
CCNC(=O)c1cc2c(N3CCOCC3C)ccnc2[nH]1 (stereo not given)								-6.36%	58.1%	52.5%		15.1%	-7.12%	-3.94%	
O=C(Nc1cnc(Oc2ccc(F)cc2)nc1)N1CCc2ncccc2[C@@H]1c1ccc(F)cc1								-7.44%	49.8%	70.5%		6.94%	-3.04%	-4.47%	
